Reference: US20260240923A1, “COMPOSITION COMPRISING BIFIDOBACTERIUM ANIMALIS SUBSP. LACTIS STRAIN AND 2’-FUCOSYLLACTOSE” (Chr. Hansen A/S, priority 2023, published 2026)

Test system: human PBMCs
Assay: Cytokine secretion from human PBMCs, homeostatic and Poly (I:C) challenged conditions (Example 6)
Assay type: cell-based
Conditions: homeostatic (unchallenged) conditions, 20 hrs; bacteria grown on 2′FL; 2′FL 2%

Which results are given for 2′-Fucosyllactose [2′FL]?
IFN-γ secretion: did not induce secretion; IL-10 secretion: did not induce secretion
